2 compounds from paper PMC5166568, “Flexible synthesis of cationic peptide–porphyrin derivatives for light-triggered drug delivery and photodynamic therapy” (Organic & Biomolecular Chemistry, 2016) can be followed below.

Data set [1] concerns MC28 cells.
Data set [2] relates to MC28 cells. The source holds these as a separate data set.
The subject of data set [3] is MC28 cells. It is filed as cell-based, rat.

As for `N=C(N)NCCC[C@H](NC(=O)CN)C(=O)N[C@@H](CCCCN)C(=O)N[C@@H](CCCCN)C(=O)N[C@@H](CCCNC(=N)N)C(=O)N[C@@H](CCCNC(=N)N)C(=O)N[C@@H](CCC(N)=O)C(=O)N[C@@H](CCCNC(=N)N)C(=O)N[C@@H](CCCNC(=N)N)C(=O)N[C@@H](CCCNC(=N)N)C(=O)NCC(=O)N[C@@H](Cc1ccc(O)cc1)C(=O)N[C@@H](CCCCN)C(=O)N[C@@H](CSC1CC(=O)N(CCC(=O)Nc2ccc(-c3c4nc(c(-c5ccccc5)c5ccc([nH]5)c(-c5ccccc5)c5nc(c(-c6ccccc6)c6ccc3[nH]6)C=C5)C=C4)cc2)C1=O)C(N)=O` (some centres unmarked) [Compound 20], in the data set with MC28 cells [1] (18 h), the “LD50 PDT” value worked out at 94 ± 6 nM. For the same compound, the LD50 dark entry with MC28 cells [1] (24 h) is given as “≫1 μM”. Moreover, in the data set with MC28 cells [2], the cellular uptake entry was “efficient uptake” and the subcellular localisation entry is on record as “Endolysosomal localisation”.
In the case of saporin, in the data set on MC28 cells [3], the “reduction in viability using saporin alone” value is recorded as “approximately 10%”.
